The subject of data set [1] is subjects with early Parkinson's disease (PD). The data set can be described thus: Example 2: randomized double-blind futility trial, change in total UPDRS. The class given is in vivo, human. Conditions: baseline to 12 months or time symptomatic therapy needed; creatine 10 g/day, minocycline 200 mg/day; worst change score imputed. How it is done:
(§1) Study Design and Randomization. This example was a single arm futility study designed to assess creatine and minocycline. A placebo arm for calibration was included in the example. Eligible subjects were randomly assigned in a 1:1:1 fashion to receive 1) 10 g/day of creatine monohydrate and placebo minocycline, 2) placebo creatine monohydrate and 200 mg/day of minocycline, or 3) placebo creatine monohydrate and placebo minocycline. The primary futility analysis was at 12 months of follow-up, but each subject was followed for 18 months for additional safety information. Subjects and investigators were kept blinded to treatment group.
Participants. […] Two of the three cardinal manifestations of PD (tremor, rigidity, and bradykinesia) were required; these findings had to be asymmetric. The diagnosis of PD must have been made within 5 years of randomization. Women of childbearing potential were required to use adequate birth control and have a negative pregnancy test at baseline. Subjects were excluded if they had any secondary causes of parkinsonism, such as drug induced parkinsonism or structural lesions; had atypical parkinsonian syndromes; gait freezing or impairment in postural reflexes; had prior stereotaxis surgery for PD; used creatine, minocycline, or any investigational agent within 90 days prior to randomization; had known hypersensitivity to creatine or minocycline; used CoQ10 in doses greater than 300 mg 90 days prior to randomization; or had any clinically significant medical condition that could interfere with the subject's ability to safely participate in the study or be followed.
(§2) Dosages. Creatine was administered as 5 g sachets mixed with 8 ounces of liquid taken twice a day and minocycline was administered as 100 mg capsules taken twice a day. Both were taken with meals.
Outcome measures. […] Disability was assessed by the sight investigator, based on impairment in ambulation, activities in daily living, and occupational status. […] Both the site investigator and medical monitors assessed the potential relationship between SAEs and study drug. […]

The test system is the same in data set [2]. The data set can be described thus: Example 2: safety and tolerability in the early Parkinson's disease trial. The class given is in vivo, human. How it is done:
as §1, §2
Outcome measures. The primary, prespecified outcome measure was the change in the total Unified PD Rating Scale (UPDRS) score from baseline to either the time at which there was sufficient disability to warrant symptomatic therapy for PD or 12 months, whichever came first. Disability was assessed by the sight investigator, based on impairment in ambulation, activities in daily living, and occupational status. The mean change in total UPDRS for each treatment group was compared to a prespecified futility threshold of a 30% reduction in the historically derived change in the total UPDRS, which was based on a placebo arm of a previous clinical trial. Tolerability was defined as the proportion of subjects taking study drug for the full 12 months. All […] adverse events (SAEs) were reviewed by the study medical monitor and an independent medical monitor. Both the site investigator and medical monitors assessed the potential relationship between SAEs and study drug.
Study Procedures. At the screening visit, the purpose and potential risks were explained to potential subjects and each subject gave written consent. […] Blood was obtained for serum chemistry and complete blood count. Participants were reevaluated at 1, 3, 6, 9, and 12 months (±6 days) after the baseline visit using the battery of clinical scales and blood was drawn again at 6 and 12 months.

“Also recorded” adds a separate entry of the source.

As to `CN(C)c1ccc(O)c2c1C[C@H]1C[C@H]3[C@H](N(C)C)C(O)=C(C(N)=O)C(=O)[C@@]3(O)C(O)=C1C2=O` [Minocycline, minocycline], the “Mean (SD) change in total UPDRS” value in data set [1] was 7.09 (8.71). Also, the “SAEs occurring during the study” value in data set [2] (creatine 10 g/day, minocycline 200 mg/day) is “Six”. Besides, the Tolerability result in data set [2] (creatine 10 g/day, minocycline 200 mg/day, 12 months) is on record as “generally well tolerated; also recorded: less well tolerated than creatine”. The “Patients with dose reductions” value in data set [2] (human, in vivo) is 15.
